These results are taken from patent US20060025328A1, “Compositions suitable for controlled release of the hormone GnRH and its analogs” (priority 1997, published 2006).

The test concerns LH. As to the kind of experiment: LH concentrations in synchronized dairy heifers, Example 6. The test is classed as in vivo. The settings on record: GnRH (100 μg) positive control. Here is the method: Experimental formulations were prepared by weighing and mixing SAIB, solvent and deslorelin acetate (DA) to give a final concentration of 25 μg/ml. The SAIB: diluting solvent composition was:SAIB/propylene carbonate 70:30 w/w). Experimental DA Treatments were sterilized using gamma radiation. 30 healthy cyclic dairy heifers weighing about 750-800 lbs (340-364 kg) were used. This study was designed as a parallel group design. All heifers were synchronized using pretreatment with 100 μg GnRH (Cystorellin, Merial, Ltd., Islin, NJ) on day -7 followed by 25 mg PGF2α (Lutalyse Pharmacia-Upjohn Co. Kalamazoo, Mich.) treatment one week later. Forty eight hours after PGF2α treatment heifers received saline (negative controls), Cystorellin ([…]; positive controls) or Deslorelin-SABER (DA-slow delivery preparation; at 12.5, 25, 50 or 100 μg intra-muscular). Blood samples were collected by veni-puncture through shaved and aseptic-swabbed sites at -48, 0, 0.5, 1, 2, 4, 6, 12, 18, 24, 36, and 48 hours after treatment for LH analysis. […] were randomly assigned to one of 6 blinded treatment groups (n=5/group) to avoid interpretation bias.

For the substance “GnRH: GnRH (Cystorellin, Merial, Ltd.), positive control (QHWSYGLRPG; Gonadoliberin-1; UniProt P01148 24-33, looked up)”, the “LH concentration at peak (average)” value is 22.3 ng/mL and the “time of peak LH post-treatment” value stood at 1 h.
